Assay results reported in the supplement of paper PMC11208160.

Assay: recombinant barcode read abundance after kanamycin selection (control-corrected) (log10(CPM+1)); higher = more efficient recombination; sequences stand for … in AGTGCAGAGAAAATCGGCCAGTTTTCTCTGCCTGCAGTCCGCATGCCGT…ATTTATGCAGCGGACTGCCTTTCTCCCAAAGTGATAAACCGGACAGTATCATGGACCGGTTTTCCCGGTAATCCGTATTTGCAAGGTTGGTTTCACT; site = the 11-nt target
Summary of the method: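 In a pooled screen in E. coli, targets were paired with target-binding loops of the IS621 bridge RNA. Each oligo carried a promoter, a target, a barcode and the first 104 bridge RNA bases driven by J23119, and was Gibson-cloned into a vector holding the remaining 73 bp and a T7-inducible recombinase before co-electroporation with a donor plasmid. Duplicate platings went onto chloramphenicol/ampicillin LB agar as the control or onto chloramphenicol/ampicillin/kanamycin with 0.1 mM IPTG. Recombination efficiency is the averaged, control-corrected count per million of barcodes at recombinant junctions, given as log10(CPM+1).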

Sequence | recombinant barcode read abundance (log10)
CGGTCCCCTTGGGTTCTAACCTGTTGCCAGA [CGGTCCCCTTG_LTGcore_CT_RTGcore_TC] (site CGGTCCCCTTG) (LTG core: CT, RTG core: TC) | 0.0215
CGGTCCCCTTGGGTTCTAACCTGTTGCCAGG [CGGTCCCCTTG_LTGcore_CT_RTGcore_CC] (site CGGTCCCCTTG) (LTG core: CT, RTG core: CC) | 0.129
CGGTCCCCTTGGGTTCTAACCTGTTGCCAGT [CGGTCCCCTTG_LTGcore_CT_RTGcore_AC] (site CGGTCCCCTTG) (LTG core: CT, RTG core: AC) | 0.258
CGGTCCCGATGGGTTCTAACCTGTTGCCAAG [CGGTCCCCTTG_LTGcore_GA_RTGcore_CT] (site CGGTCCCCTTG) (LTG core: GA, RTG core: CT) | 0.197
CGGTCCCGATGGGTTCTAACCTGTTGCCATC [CGGTCCCCTTG_LTGcore_GA_RTGcore_GA] (site CGGTCCCCTTG) (LTG core: GA, RTG core: GA) | 0.3
CGGTCCCGGTGGGTTCTAACCTGTTGCCAAG [CGGTCCCCTTG_LTGcore_GG_RTGcore_CT] (site CGGTCCCCTTG) (LTG core: GG, RTG core: CT) | 0.0912
CGGTCCCGTTGGGTTCTAACCTGTTGCCAAG [CGGTCCCCTTG_LTGcore_GT_RTGcore_CT] (site CGGTCCCCTTG) (LTG core: GT, RTG core: CT) | 0.292
GAGCCCAAATGGGTTCTAACCTGTTGCCTTT [GAGCCCACTAG_LTGcore_AA_RTGcore_AA] (site GAGCCCACTAG) (LTG core: AA, RTG core: AA) | 0.102
GAGCCCAACTGGGTTCTAACCTGTTGCCTAG [GAGCCCACTAG_LTGcore_AC_RTGcore_CT] (site GAGCCCACTAG) (LTG core: AC, RTG core: CT) | 0.135
GAGCCCAAGTGGGTTCTAACCTGTTGCCTAG [GAGCCCACTAG_LTGcore_AG_RTGcore_CT] (site GAGCCCACTAG) (LTG core: AG, RTG core: CT) | 0.0502
GAGCCCAATTGGGTTCTAACCTGTTGCCTAG [GAGCCCACTAG_LTGcore_AT_RTGcore_CT] (site GAGCCCACTAG) (LTG core: AT, RTG core: CT) | 0.204
GAGCCCACATGGGTTCTAACCTGTTGCCTTG [GAGCCCACTAG_LTGcore_CA_RTGcore_CA] (site GAGCCCACTAG) (LTG core: CA, RTG core: CA) | 0.49
GAGCCCACCTGGGTTCTAACCTGTTGCCTAG [GAGCCCACTAG_LTGcore_CC_RTGcore_CT] (site GAGCCCACTAG) (LTG core: CC, RTG core: CT) | 0.29
GAGCCCACGTGGGTTCTAACCTGTTGCCTCG [GAGCCCACTAG_LTGcore_CG_RTGcore_CG] (site GAGCCCACTAG) (LTG core: CG, RTG core: CG) | 0.282
GAGCCCACTTGGGTTCTAACCTGTTGCCTAA [GAGCCCACTAG_LTGcore_CT_RTGcore_TT] (site GAGCCCACTAG) (LTG core: CT, RTG core: TT) | 0.912
GAGCCCACTTGGGTTCTAACCTGTTGCCTAC [GAGCCCACTAG_LTGcore_CT_RTGcore_GT] (site GAGCCCACTAG) (LTG core: CT, RTG core: GT) | 0.369
GAGCCCACTTGGGTTCTAACCTGTTGCCTAG [GAGCCCACTAG_LTGcore_CT_RTGcore_CT] (site GAGCCCACTAG) (LTG core: CT, RTG core: CT) | 1.45
GAGCCCACTTGGGTTCTAACCTGTTGCCTCT [GAGCCCACTAG_LTGcore_CT_RTGcore_AG] (site GAGCCCACTAG) (LTG core: CT, RTG core: AG) | 0
GAGCCCACTTGGGTTCTAACCTGTTGCCTTG [GAGCCCACTAG_LTGcore_CT_RTGcore_CA] (site GAGCCCACTAG) (LTG core: CT, RTG core: CA) | 0.835
GAGCCCACTTGGGTTCTAACCTGTTGCCTTT [GAGCCCACTAG_LTGcore_CT_RTGcore_AA] (site GAGCCCACTAG) (LTG core: CT, RTG core: AA) | 0.37
GAGCCCAGGTGGGTTCTAACCTGTTGCCTCC [GAGCCCACTAG_LTGcore_GG_RTGcore_GG] (site GAGCCCACTAG) (LTG core: GG, RTG core: GG) | 0.596
GAGCCCAGTTGGGTTCTAACCTGTTGCCTAC [GAGCCCACTAG_LTGcore_GT_RTGcore_GT] (site GAGCCCACTAG) (LTG core: GT, RTG core: GT) | 0.0734
GAGGCCTAATGGGTTCTAACCTGTTGCCATT [GAGGCCTCTTG_LTGcore_AA_RTGcore_AA] (site GAGGCCTCTTG) (LTG core: AA, RTG core: AA) | 0.223

Sequence | recombinant barcode read abundance (log10)
GAGGCCTACTGGGTTCTAACCTGTTGCCAAG [GAGGCCTCTTG_LTGcore_AC_RTGcore_CT] (site GAGGCCTCTTG) (LTG core: AC, RTG core: CT) | 0.0351
GAGGCCTACTGGGTTCTAACCTGTTGCCAGT [GAGGCCTCTTG_LTGcore_AC_RTGcore_AC] (site GAGGCCTCTTG) (LTG core: AC, RTG core: AC) | 0.0631
GAGGCCTATTGGGTTCTAACCTGTTGCCAAG [GAGGCCTCTTG_LTGcore_AT_RTGcore_CT] (site GAGGCCTCTTG) (LTG core: AT, RTG core: CT) | 0.196
GAGGCCTATTGGGTTCTAACCTGTTGCCAAT [GAGGCCTCTTG_LTGcore_AT_RTGcore_AT] (site GAGGCCTCTTG) (LTG core: AT, RTG core: AT) | 0.122
GAGGCCTCATGGGTTCTAACCTGTTGCCAAG [GAGGCCTCTTG_LTGcore_CA_RTGcore_CT] (site GAGGCCTCTTG) (LTG core: CA, RTG core: CT) | 0.318
GAGGCCTGATGGGTTCTAACCTGTTGCCAAG [GAGGCCTCTTG_LTGcore_GA_RTGcore_CT] (site GAGGCCTCTTG) (LTG core: GA, RTG core: CT) | 0.0459
GAGGCCTGCTGGGTTCTAACCTGTTGCCAAG [GAGGCCTCTTG_LTGcore_GC_RTGcore_CT] (site GAGGCCTCTTG) (LTG core: GC, RTG core: CT) | 0.235
GAGGCCTGTTGGGTTCTAACCTGTTGCCAAG [GAGGCCTCTTG_LTGcore_GT_RTGcore_CT] (site GAGGCCTCTTG) (LTG core: GT, RTG core: CT) | 0.586
GAGGCCTTATGGGTTCTAACCTGTTGCCAAG [GAGGCCTCTTG_LTGcore_TA_RTGcore_CT] (site GAGGCCTCTTG) (LTG core: TA, RTG core: CT) | 0.145
GAGGCCTTGTGGGTTCTAACCTGTTGCCAAG [GAGGCCTCTTG_LTGcore_TG_RTGcore_CT] (site GAGGCCTCTTG) (LTG core: TG, RTG core: CT) | 0.0876
GAGTCCAACTGGGTTCTAACCTGTTGCGTAG [GAGTCCACTAC_LTGcore_AC_RTGcore_CT] (site GAGTCCACTAC) (LTG core: AC, RTG core: CT) | 0.282
GAGTCCAAGTGGGTTCTAACCTGTTGCGTAG [GAGTCCACTAC_LTGcore_AG_RTGcore_CT] (site GAGTCCACTAC) (LTG core: AG, RTG core: CT) | 0.075
GAGTCCACATGGGTTCTAACCTGTTGCGTAG [GAGTCCACTAC_LTGcore_CA_RTGcore_CT] (site GAGTCCACTAC) (LTG core: CA, RTG core: CT) | 0.829
GAGTCCACTTGGGTTCTAACCTGTTGCGTAC [GAGTCCACTAC_LTGcore_CT_RTGcore_GT] (site GAGTCCACTAC) (LTG core: CT, RTG core: GT) | 0.0332
GAGTCCACTTGGGTTCTAACCTGTTGCGTCA [GAGTCCACTAC_LTGcore_CT_RTGcore_TG] (site GAGTCCACTAC) (LTG core: CT, RTG core: TG) | 0.0372
GAGTCCACTTGGGTTCTAACCTGTTGCGTGC [GAGTCCACTAC_LTGcore_CT_RTGcore_GC] (site GAGTCCACTAC) (LTG core: CT, RTG core: GC) | 0.0181
GAGTCCACTTGGGTTCTAACCTGTTGCGTGG [GAGTCCACTAC_LTGcore_CT_RTGcore_CC] (site GAGTCCACTAC) (LTG core: CT, RTG core: CC) | 0.0805
GAGTCCACTTGGGTTCTAACCTGTTGCGTTA [GAGTCCACTAC_LTGcore_CT_RTGcore_TA] (site GAGTCCACTAC) (LTG core: CT, RTG core: TA) | 0.102
GAGTCCACTTGGGTTCTAACCTGTTGCGTTC [GAGTCCACTAC_LTGcore_CT_RTGcore_GA] (site GAGTCCACTAC) (LTG core: CT, RTG core: GA) | 0.671
GAGTCCAGATGGGTTCTAACCTGTTGCGTTC [GAGTCCACTAC_LTGcore_GA_RTGcore_GA] (site GAGTCCACTAC) (LTG core: GA, RTG core: GA) | 0.157
GAGTCCAGTTGGGTTCTAACCTGTTGCGTAC [GAGTCCACTAC_LTGcore_GT_RTGcore_GT] (site GAGTCCACTAC) (LTG core: GT, RTG core: GT) | 0.0422
GAGTCCATATGGGTTCTAACCTGTTGCGTAG [GAGTCCACTAC_LTGcore_TA_RTGcore_CT] (site GAGTCCACTAC) (LTG core: TA, RTG core: CT) | 0.0591
